# Assay results taken from patent EP0234113A1, “2,3-Dihydro-1H-phenalene-2-amino compounds as anti-psychotic drugs” (THE UPJOHN COMPANY, priority 1985, dated 1987).
# Counter-ions that a name gives are not always drawn.
# Test system: body temperature
# Test: Hypothermia Test (effect on body temperature)
# Assay type: in vivo, CF-1 male mice
# Settings: Mus musculus, ip, 0.75 h, read-out: hypothermia, calculated ED50
# Method: The Effect on Body Temperature (Hypothermia) Test and the Antagonism of Apomorphone-Induced Case Climbing (ACC), (Apomorphine Gnawing Test) are described on page 1398 of the publication, Journal of Medicinal Chemistry, Vol. 22, No. 11, pp. 1390-1398, in an article entitled "6-Aryl-4H-s-triazolo[4,3-a][1,4]benzodiazepines....Action" by J. B. Hester, Jr., et al.
# For the tests here, the Hypothermia Test procedure was run as follows:
# A group of four CF-1 male mice (18-22 g each) was injected intraperitoneally with the test compound prepared in 0.25 percent w/v methylcellulose in water solution. After 45 min, abdominal temperature of each mouse was measured using a thermister probe. A control group of four mice was treated with vehicle only and the temperature of the control group was taken in a similar manner. A compound was considered to have a significant effect on body temperature if the mean temperature in the test compound treated group deviated more than 3.5°C from the mean temperature of the parallel control group. Stimulants tend to elevate temperatures; depressants tend to lower body temperature.
row,Molecule,ED50
1,"CCCN(CCC)C1Cc2cccc3cc(O)cc(c23)C1 (racemic) [(15), (±)2-(N,N-di-n-propylamino)-2,3-dihydro-lH-phenalen-5-ol]",1 mg/kg

# Same assay, conditions: either test: hypothermic or apomorphine antagonism
row,Molecule,active in either the hypothermic or the apomorphine antogonism test
1,"1-[2-(N,N-dimethylamino)-2,3-dihydro-1H-phenalen-y-yl]-ethan-1-ol hydrochloride [(10)]",active
2,"5-[2-(N,N-dimethylamino)-2,3-dihydro-1H-phenalen-2-yl]azetidine hydrochloride [(13)]",active
3,"6-chloro-N,N-di-n-propyl-2,3-dihydro-lH-phenalen-2-ylamine hydrochloride [(51)]",active
4,"6-chloro-N,N-dimethyl-2,3-dihydro-lH-phenalen-2-amine hydrochloride [(52)]",active
5,"CCCN(CCC)C1Cc2cccc3cc(O)cc(c23)C1 (racemic) [(15), (±)2-(N,N-di-n-propylamino)-2,3-dihydro-lH-phenalen-5-ol]",active
6,"CCCN(CCC)C1Cc2cccc3cc(O)cc(c23)C1.Cl (racemic) [(16), (±)2-(N,N-di-n-propylamino)-2,3-dihydro-1H-phenalen-5-ol hydrochloride]",active
7,"CCCN(CCC)C1Cc2cccc3cc(O)cc(c23)C1 (racemic) [(17), (±)2-(N,N-di-n-propylamino)-2,3-dihydro-lH-phenalen-5-ol hydrobromide salt]",active
8,"CCCN(CCC)C1Cc2cccc3cc(O)cc(c23)C1 (single isomer, unassigned; (+)) [(33), (+)-2-(N,N-di-n-propylamino)-2,3-dihydro-lH-phenalen-5-ol hydrobromide]",active
9,"CCCN(CCC)C1Cc2cccc3cc(O)cc(c23)C1 (single isomer, unassigned; (-)) [(34), (-)-2-(N,N-di-n-propylamino)-2,3-dihydro-lH-phenalen-5-ol hydrobromide]",active
10,"CN(C)C1Cc2cccc3c(Br)ccc(c23)C1 (centres unmarked) [(2), 6-Bromo-N,N-dimethyl-2,3-dihydro-lH-phenalen-2-amine hydrochloride]",active
11,"CN(C)C1Cc2cccc3c(O)ccc(c23)C1 (centres unmarked) [(3), 2-(N,N-dimethylamino-2,3-dihydro-lH-phenalen-6-ol hydrochloride]",active
12,CCCN(CCC)C1Cc2cccc3c(Br)ccc(c23)C1 (centres unmarked) [(4)],active
13,"CN(C)C1Cc2cccc3cccc(c23)C1 [(7), N,N-dimethyl-2,3-dihydro-lH-phenalen-2-amine hydrochloride]",active
14,"CCCN(CCC)C1Cc2cccc3c(O)ccc(c23)C1 (centres unmarked) [(9), 2-(N,N-di-n-propylamino)-2,3-dihydro-lH-phenalen-6-ol hydrochloride]",active
15,"CN(C)C1(N2CCC2)Cc2cccc3cccc(c23)C1 [(11), 1-[2-(N,N-dimethylamino)-2,3-dihydro-1H-phenalen-2-yl]azetidine]",active
16,"Brc1ccc2c3c(cccc13)CC(N1CCC1)C2 (centres unmarked) [(12), 1-[6-bromo-2,3-dihydro-1H-phenalen-2-yl]azetidine]",active
17,"CNC1Cc2cccc3c(C(C)=O)ccc(c23)C1 (centres unmarked) [(14), N-methyl-6-acetyl-2,3-dihydro-lH-phenalen-2-amine hydrochloride]",active

row,Molecule,active in either the hypothermic or the apomorphine antogonism test
1,"CCCN(CCC)C1Cc2cccc3cc(OCc4ccccc4)cc(c23)C1 (centres unmarked) [(18), [2-(N,N-di-n-propylamino)-2,3-dihydro-lH-phenalen-5-yl]-a-benzyl ether]",active
2,"CN(C)C1Cc2cccc3c(C(=O)c4ccccc4)ccc(c23)C1 (centres unmarked) [(19), [2-(N,N-dimethylamino)-2,3-dihydro-1H-phenalen-6-yl]phenone maleate salt]",active
3,"CNC1Cc2cccc3c(C(=O)c4ccccc4)ccc(c23)C1 (centres unmarked) [(20), [2-(N-methylamino)-2,3-dihydro-lH-phenalen-6-yl]phenone methanesulfonate salt]",active
4,"CNC1Cc2cccc3c(OCc4ccccc4)ccc(c23)C1 (centres unmarked) [(21), [2-(N-methylamino)-2,3-dihydro-lH-phenalen-6-yl]benzyl ether, p-toluene sulfonate salt]",active
5,"CN(C)C1Cc2cccc3c(OCc4ccccc4)ccc(c23)C1 (centres unmarked) [(22), [2-(N,N-dimethylamino)-2,3-dihydro-1H-phenalen-6-yl]benzyl ether hydrochloride]",active
6,"CN(C)C1Cc2cccc3cc(O)cc(c23)C1 (centres unmarked) [(23), 2-(N,N-dimethylamino)-2,3-dihydro-lH-phenalen-5-ol]",active
7,"COc1ccc2cccc3c2c1CC(N)C3 (centres unmarked) [(24), 4-methoxy-2,3-dihydro-lH-phenalen-2-amine]",active
8,"CCCN(CCC)C1Cc2cccc3ccc(OC)c(c23)C1 (centres unmarked) [(25), N,N-di-n-propyl-4-methoxy-2,3-dihydro-lH-phenalen-2-amine hydrochloride]",active
9,"Brc1ccc2c3c(cccc13)CC(N1CCCC1)C2 (centres unmarked) [(26), 1-[6-bromo-2,3-dihydro-lH-phenalen-2-yl]pyrrolidine]",active
10,"NC1Cc2cccc3c(Br)ccc(c23)C1 (centres unmarked) [(27), 6-bromo-2,3-dihydro-lH-phenalen-2-ylamine hydrochloride]",active
11,"CCCN(CCC)C1Cc2cccc3ccc(O)c(c23)C1 (centres unmarked) [(28), 2-(N,N-di-n-propylamino)-2,3-dihydro-1H-phenalen-4-ol hydrobromide]",active
12,"Brc1ccc2c3c(cccc13)CC(N1CCCCC1)C2 (centres unmarked) [(29), 1-[6-bromo-2,3-dihydro-1H-phenalen-2-yl]piperadine]",active
13,"COc1ccc2cccc3c2c1CC(N(C)C)C3 (centres unmarked) [(31), N,N-dimethyl-4-methoxy-2,3-dihydro-lH-phenalen-2-ylamine maleate salt]",active
14,"COc1ccc2cccc3c2c1CC(N(C)C)C3 (centres unmarked) [(35), N,N-dimethyl-4-methoxy-2 ,3-dihydro-lH-phenalen-2-ylamine hydrochloride]",active
15,"CN(C)C1Cc2cccc3ccc(O)c(c23)C1 (centres unmarked) [(36), 2-(N,N-dimethylamino)-2,3-dihydro-lH-phenalen-4-ol hydrobromide]",active
16,"CCCN(CCC)C1Cc2cccc3cc(OC(C)=O)cc(c23)C1 (centres unmarked) [(37), [2-(N,N-di-n-propylamino)-2,3-dihydro-lH-phenalen-5-yl]acetate ester]",active
17,"NC1Cc2cccc3cc(OCc4ccccc4)cc(c23)C1 (centres unmarked) [(38), [2-amino-2,3-dihydro-lH-phenalen-5-yl]-a-benzyl ether hydrochloride]",active
